For the assay, the system named is BDF1 mice, P388 leukemia ip, median survival T/C. Nature of the assay: NCI In Vivo Anticancer Drug Screen. Data for tumor model P388 Leukemia (intraperitoneal) in B6D2F1 (BDF1) mice. The note with it: endpoint: median survival time, higher = longer survival. The gist of the method: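 Read-out is survival of treated animals expressed relative to the vehicle group, as a T/C ratio.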

[1] abbreviates: dose: 50.0 mg/kg/injection, schedule: Q01DX009 (ip), vehicle: saline with Tween-80.
Where [2] appears, read: dose: 50.0 mg/kg/injection, schedule: Q01DX009 (ip), vehicle: saline.
Setting [3] is: dose: 100.0 mg/kg/injection, schedule: Q01DX009 (ip), vehicle: saline with Tween-80.
[4] abbreviates: dose: 100.0 mg/kg/injection, schedule: Q01DX009 (ip), vehicle: saline.
Setting [5] is: dose: 200.0 mg/kg/injection, schedule: Q01DX009 (ip), vehicle: saline with Tween-80.
Setting [6] is: dose: 200.0 mg/kg/injection, schedule: Q01DX009 (ip), vehicle: saline.
Setting [7] is: dose: 400.0 mg/kg/injection, schedule: Q01DX009 (ip), vehicle: saline with Tween-80.
Setting [8] is: dose: 400.0 mg/kg/injection, schedule: Q01DX009 (ip), vehicle: saline.
[9] abbreviates: dose: 25.0 mg/kg/injection, schedule: Q01DX009 (ip), vehicle: Klucel (hydroxypropylcellulose) (HPC).
Where [10] appears, read: dose: 50.0 mg/kg/injection, schedule: Q01DX009 (ip), vehicle: Klucel (hydroxypropylcellulose) (HPC).
[11] abbreviates: dose: 25.0 mg/kg/injection, schedule: Q01DX009 (ip), vehicle: saline.
[12] abbreviates: dose: 100.0 mg/kg/injection, schedule: Q04DX003 (ip), vehicle: saline with Tween-80.
[13] abbreviates: dose: 200.0 mg/kg/injection, schedule: Q04DX003 (ip), vehicle: saline with Tween-80.

Inconclusive results and toxic doses are left out.

As for `O=C1CN=C(c2ccc[nH]2)c2cc(Cl)ccc2N1`, the T/C was 118 % of control (dose: 25.0 mg/kg/injection, schedule: Q01DX009 (ip), vehicle: saline with Tween-80); 104 % of control (dose: 45.0 mg/kg/injection, schedule: Q01DX009 (oral), vehicle: saline); 100 % of control under setting [1]; 97 % of control under setting [2]; 100 % of control (dose: 65.0 mg/kg/injection, schedule: Q01DX009 (oral), vehicle: saline); 95 % of control (dose: 100.0 mg/kg/injection, schedule: Q01DX001 (ip), vehicle: saline with Tween-80). Also, the T/C (dose: 100.0 mg/kg/injection, schedule: Q01DX001 (oral), vehicle: saline with Tween-80) is 90 % of control; the T/C under setting [3] was 118 % of control; the T/C under setting [4] is 105 % of control; the T/C (dose: 100.0 mg/kg/injection, schedule: Q01DX009 (oral), vehicle: saline with Tween-80) is 95 % of control; the T/C (dose: 200.0 mg/kg/injection, schedule: Q01DX001 (ip), vehicle: saline with Tween-80) is 104 % of control; the T/C (dose: 200.0 mg/kg/injection, schedule: Q01DX001 (oral), vehicle: saline with Tween-80) is 86 % of control. Moreover, the T/C was 118 % of control under setting [5]; 97 % of control under setting [6]; 104 % of control (dose: 200.0 mg/kg/injection, schedule: Q01DX009 (oral), vehicle: saline with Tween-80); 90 % of control (dose: 400.0 mg/kg/injection, schedule: Q01DX001 (ip), vehicle: saline with Tween-80); 95 % of control (dose: 400.0 mg/kg/injection, schedule: Q01DX001 (oral), vehicle: saline with Tween-80); 163 % of control under setting [7]. Further, the T/C is, setting by setting: under setting [8], 103 % of control; (dose: 800.0 mg/kg/injection, schedule: Q01DX001 (ip), vehicle: saline with Tween-80) 109 % of control; (dose: 800.0 mg/kg/injection, schedule: Q01DX001 (oral), vehicle: saline with Tween-80) 100 % of control.

On to `CCCCOCN(COCCCC)c1ccc([N+](=O)[O-])cc1`, for which the T/C by setting is: under setting [1], 106 % of control; under setting [3], 104 % of control; under setting [5], 100 % of control.

For the compound `C[C@]12CC[C@@H]3c4ccc(O)cc4CC[C@H]3[C@@H]1C[C@@H](O)[C@@H]2O`, the T/C was 90 % of control (dose: 12.5 mg/kg/injection, schedule: Q01DX009 (ip), vehicle: Klucel (hydroxypropylcellulose) (HPC)); 100 % of control under setting [9]; 109 % of control under setting [10]; 104 % of control (dose: 100.0 mg/kg/injection, schedule: Q04DX003 (ip), vehicle: Klucel (hydroxypropylcellulose) (HPC)); 104 % of control (dose: 200.0 mg/kg/injection, schedule: Q04DX003 (ip), vehicle: Klucel (hydroxypropylcellulose) (HPC)); 100 % of control (dose: 400.0 mg/kg/injection, schedule: Q04DX003 (ip), vehicle: Klucel (hydroxypropylcellulose) (HPC)).

Consider `COc1ccc(C2(C#N)CCCC2)cc1`, for which the T/C runs as follows: under setting [3], 100 % of control; under setting [5], 108 % of control; under setting [7], 108 % of control.

With `COc1cc2ccc3c[n+]4ccccc4cc3c2cc1OC`, the T/C under setting [9] was 102 % of control; the T/C under setting [11] was 112 % of control; the T/C under setting [10] is 116 % of control; the T/C under setting [2] was 117 % of control; the T/C under setting [4] is 114 % of control; the T/C (dose: 150.0 mg/kg/injection, schedule: Q01DX009 (ip), vehicle: Klucel (hydroxypropylcellulose) (HPC)) is 118 % of control.

For the compound `Cc1ccc(C[N+](C)(C)C)c2ccccc12`, the T/C reads like this: (dose: 12.5 mg/kg/injection, schedule: Q04DX003 (ip), vehicle: saline) 107 % of control; (dose: 25.0 mg/kg/injection, schedule: Q04DX003 (ip), vehicle: saline) 105 % of control; (dose: 50.0 mg/kg/injection, schedule: Q04DX003 (ip), vehicle: saline) 96 % of control.

Take `CN1/C(=C/C=C(/N=C(C#N)C#N)c2ccccc2)C(C)(C)c2ccccc21`: the T/C was 95 % of control under setting [1], 98 % of control under setting [3] and 98 % of control under setting [5].

Take `CC(O)(c1ccc(Br)cc1)C(c1ccccc1)c1ccccn1` (configuration not stated): the T/C is 104 % of control under setting [11]; 100 % of control under setting [2]; 86 % of control under setting [4]; 111 % of control (dose: 100.0 mg/kg/injection, schedule: Q04DX003 (ip), vehicle: saline); 111 % of control under setting [6]; 104 % of control (dose: 200.0 mg/kg/injection, schedule: Q04DX003 (ip), vehicle: saline). Further, the T/C by setting is: under setting [8], 101 % of control; (dose: 400.0 mg/kg/injection, schedule: Q04DX003 (ip), vehicle: saline) 109 % of control.

`CCCCCCCCCCCCCCCC(=O)Oc1ccc(/C(CC)=C(/CC)c2ccc(OC(=O)CCCCCCCCCCCCCCC)cc2)cc1`: the T/C is 90 % of control under setting [12]; 89 % of control under setting [13]; 89 % of control (dose: 400.0 mg/kg/injection, schedule: Q04DX003 (ip), vehicle: saline with Tween-80).

In the case of `C=CC(C)C(C)(OCc1ccccc1)C(=O)O` (configuration not stated), the T/C (dose: 50.0 mg/kg/injection, schedule: Q01DX005 (ip), vehicle: saline with Tween-80) was 100 % of control; the T/C (dose: 100.0 mg/kg/injection, schedule: Q01DX005 (ip), vehicle: saline with Tween-80) was 113 % of control; the T/C (dose: 200.0 mg/kg/injection, schedule: Q01DX005 (ip), vehicle: saline with Tween-80) is 106 % of control.

For the compound `Cc1cc[n+](CCc2ccccc2)cc1`, the T/C was 91 % of control (dose: 6.25 mg/kg/injection, schedule: Q01DX009 (ip), vehicle: saline); 87 % of control (dose: 12.5 mg/kg/injection, schedule: Q01DX009 (ip), vehicle: saline); 91 % of control (dose: 18.75 mg/kg/injection, schedule: Q01DX010 (ip), vehicle: acetone); 87 % of control (dose: 37.5 mg/kg/injection, schedule: Q01DX010 (ip), vehicle: acetone); 112 % of control under setting [2]; 91 % of control (dose: 75.0 mg/kg/injection, schedule: Q01DX010 (ip), vehicle: acetone).

For `CN(CCO)C1=C(N2CC2)C(=O)C(N(C)CCO)=C(N2CC2)C1=O`, the T/C reads like this: (dose: 200.0 micrograms/kg/injection, schedule: Q01DX009 (ip), vehicle: saline) 116 % of control; (dose: 400.0 micrograms/kg/injection, schedule: Q01DX009 (ip), vehicle: saline) 157 % of control; (dose: 800.0 micrograms/kg/injection, schedule: Q01DX009 (ip), vehicle: saline) 228 % of control.

On to `CC12OC(=O)CC1CC(=O)O2` (configuration not stated), for which the T/C was 95 % of control (dose: 50.0 mg/kg/injection, schedule: Q01DX001 (ip), vehicle: saline); 95 % of control (dose: 100.0 mg/kg/injection, schedule: Q01DX001 (ip), vehicle: saline); 105 % of control (dose: 200.0 mg/kg/injection, schedule: Q01DX001 (ip), vehicle: saline).

On to `CC(=O)Nc1ccc2c(c1)OCO2`, for which the T/C was 104 % of control under setting [1]; 104 % of control under setting [3]; 95 % of control under setting [12]; 90 % of control under setting [5]; 113 % of control under setting [13].

As for `CC(=O)[O][Pb]([O]C(C)=O)([c]1ccccc1)[c]1ccccc1`, the T/C (dose: 44.0 mg/kg/injection, schedule: Q01DX009 (ip), vehicle: saline with Tween-80) was 177 % of control; the T/C (dose: 66.0 mg/kg/injection, schedule: Q01DX009 (ip), vehicle: saline with Tween-80) is 184 % of control; the T/C under setting [3] was 201 % of control; the T/C (dose: 150.0 mg/kg/injection, schedule: Q01DX009 (ip), vehicle: saline with Tween-80) is 93 % of control.

With `O=C(/C=C/c1ccc(OCc2ccccc2)cc1)c1ccc(Cl)cc1Cl`, the T/C is, setting by setting: under setting [1], 91 % of control; under setting [3], 89 % of control; under setting [5], 89 % of control.

As to `Nc1ccn(C2OC(CO)C(O)C2O)c(=O)c1` (configuration not stated), the T/C under setting [11] was 93 % of control, the T/C under setting [2] is 95 % of control, the T/C under setting [4] is 112 % of control and the T/C under setting [6] is 102 % of control.

For the compound `CC(C)NC(=O)C12CC3CC(CC(C3)C1)C2`, the T/C is, setting by setting: under setting [1], 92 % of control; under setting [3], 87 % of control; under setting [5], 100 % of control.

`OCC(Br)(Br)Br`: the T/C runs as follows: (dose: 100.0 mg/kg/injection, schedule: Q01DX009 (ip), vehicle: other) 95 % of control; (dose: 200.0 mg/kg/injection, schedule: Q01DX009 (ip), vehicle: other) 95 % of control.

Values taken from PubChem BioAssay AID328 (DTP/NCI, 2004).
